How the values were obtained:
[1] = molecular target: hemY/PPO (Bacillus subtilis, UniProt P32397); assay: Activation of hemY/PPO, Bacillus subtilis; format: biochemical
[2] = molecular target: T1, mammalian PPO (Homo sapiens, UniProt P50336); assay: Activation of mammalian PPO; format: biochemical
T1 sequence (P50336 1-477): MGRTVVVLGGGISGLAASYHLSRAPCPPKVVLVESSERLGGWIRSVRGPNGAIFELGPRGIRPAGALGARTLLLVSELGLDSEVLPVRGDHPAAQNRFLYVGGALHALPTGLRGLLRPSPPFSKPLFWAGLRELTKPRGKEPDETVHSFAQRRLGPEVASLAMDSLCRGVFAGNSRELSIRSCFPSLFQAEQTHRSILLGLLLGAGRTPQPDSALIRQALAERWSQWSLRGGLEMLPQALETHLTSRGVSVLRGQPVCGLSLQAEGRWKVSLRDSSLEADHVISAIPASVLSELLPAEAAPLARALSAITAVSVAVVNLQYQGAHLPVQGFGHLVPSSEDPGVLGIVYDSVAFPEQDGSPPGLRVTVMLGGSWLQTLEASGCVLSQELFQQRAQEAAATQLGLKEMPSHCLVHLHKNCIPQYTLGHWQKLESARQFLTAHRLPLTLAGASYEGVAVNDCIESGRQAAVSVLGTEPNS

[3] = system: S. aureus; assay: Phototherapy: compound plus light, CFU count; format: cell-based
Description: Briefly, S. aureus was incubated with the 882 compound for 30 minutes at 37° C., treated with light for 45 minutes (500 W halogen), and then a colony-forming unit (CFU) count was conducted.

[4] = system: heme biosynthetic pathway; assay: Accumulation of heme precursor molecules; format: cell-based, S. aureus; conditions: data not shown
Text: Because ALA is the first committed precursor molecule in the heme biosynthetic pathway, if ALA is contacted with bacteria, the bacteria will generated enhanced amounts of all of the heme precursor molecules downstream of ALA.

[5] = molecular target: T2, wild type S. aureus hemY (Staphylococcus aureus, UniProt Q2FXA5); assay: Activation of hemY, wild type; format: biochemical
T2 sequence (Q2FXA5 1-466): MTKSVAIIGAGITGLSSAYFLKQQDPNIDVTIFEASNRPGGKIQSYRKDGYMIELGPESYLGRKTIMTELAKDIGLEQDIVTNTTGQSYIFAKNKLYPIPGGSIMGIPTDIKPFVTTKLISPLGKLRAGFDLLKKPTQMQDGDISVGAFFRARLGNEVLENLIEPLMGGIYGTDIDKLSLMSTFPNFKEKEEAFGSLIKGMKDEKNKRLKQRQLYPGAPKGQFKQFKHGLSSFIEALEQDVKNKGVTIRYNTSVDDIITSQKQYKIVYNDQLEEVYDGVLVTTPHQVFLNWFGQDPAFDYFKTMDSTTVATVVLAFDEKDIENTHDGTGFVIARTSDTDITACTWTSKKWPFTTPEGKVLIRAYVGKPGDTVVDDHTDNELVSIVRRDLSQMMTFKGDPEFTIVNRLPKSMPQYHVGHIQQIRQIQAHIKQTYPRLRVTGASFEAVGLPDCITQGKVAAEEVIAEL

[6] = system: hemY/PPO; assay: Activation of hemY/PPO, Propionibacterium acnes; format: biochemical
[7] = molecular target: T183K point mutant of hemY (Staphylococcus aureus, UniProt Q2FXA5, T183K); assay: Activation of hemY, T183K mutant; format: biochemical, S. aureus

hemY/PPO (Bacillus subtilis, UniProt P32397), sequence (P32397 whole entry): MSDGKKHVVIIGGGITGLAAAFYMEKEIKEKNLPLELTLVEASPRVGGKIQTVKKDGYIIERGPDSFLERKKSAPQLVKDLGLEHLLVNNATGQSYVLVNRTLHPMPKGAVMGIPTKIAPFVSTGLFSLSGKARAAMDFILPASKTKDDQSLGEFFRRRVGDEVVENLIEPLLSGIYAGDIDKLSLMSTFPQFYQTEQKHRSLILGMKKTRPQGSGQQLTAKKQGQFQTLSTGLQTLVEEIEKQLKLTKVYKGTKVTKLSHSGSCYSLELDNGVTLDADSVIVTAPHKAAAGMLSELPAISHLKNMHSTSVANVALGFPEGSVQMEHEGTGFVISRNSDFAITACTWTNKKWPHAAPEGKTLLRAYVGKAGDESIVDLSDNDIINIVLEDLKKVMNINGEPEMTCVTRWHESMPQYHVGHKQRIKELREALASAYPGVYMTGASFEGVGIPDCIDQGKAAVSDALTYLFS

How did the “activation of hemY/PPO” value [1] turn out when `Oc1c(-c2cc(-c3ccco3)[nH]n2)ccc2ccccc12` [882 compound] was run?
The value was “activates hemY/PPO in Bacillus subtilis”.

What about the “activation of PPO” value [2] of the same compound?
Its value is “activates”.

And the “toxicity with light compared to ALA and light” value ([3]; 882 50 μM and light vs ALA 10 mg/mL and light)?
The value was “more toxic to the bacteria than ALA”.

And the photosensitization ([3]; 30 min at 37° C., light 45 min (500 W halogen), CFU count)?
The photosensitization was “leads to staphylococcal photosensitization”.

And the PPIX accumulation [4]?
The PPIX accumulation was “does increase PPIX accumulation”.

What about the “accumulation of PBG” value [4] of the same compound?
Its value is “does not”.

And the “activation of hemY” value [5]?
Its value is “activates wild type S. aureus hemY”.

And the “activation of hemY/PPO” value [6]?
Its value is “activates”.

And the “activation of hemY” value [7]?
Its value is “not the T183K point mutant of hemY”.

Reference: patent US9867879B2 (Vanderbilt University, priority 2015, dated 2018)
